Measured values: patent publication US10722575B2, “Use of 1,3-diphenylprop-2-en-1-one derivatives for treating liver disorders” (GENFIT, priority 2009, dated 2020)

Experiments:
Format in all cases: in vivo
[1] = tested on: hApoE2 KI/PPARalpha KO mice; assay: hApoE2 KI/PPARalpha KO mice on Western diet, hepatic lipid analysis (liver triglycerides); settings: 30 mg/kg/day by gavage, 6 weeks, FIG. 4D
Description: The compounds of the General Formula (I) were tested in vivo in a high fat diet mice model. Dyslipidemic “humanized” hApoE2 KI deficient for PPARalpha were fed a Western diet and treated during 6 weeks. The compounds of interest, including the Compound 29 of WO 2004/005233 at 30 mg/kg/day and the Compound 1 of WO 2007/147879 at 30 mg/kg/day were orally administrated by gavage. At the end of the protocol, animals were sacrificed, livers were harvested and the hepatic expression of relevant genes implicated in the liver inflammation and the fibrosis processes were evaluated by quantitative RT-PCR. In parallel, liver triglycerides contents were evaluated (Panels A-D). Statistical analysis was performed as indicated for FIG. 1.
Animals were fed a Western diet (20% saturated fat and 0.2% cholesterol, Harlan Teklad TD88137) during 2 weeks in the first study, that involved the daily administration of Cpd 29 (at 30 mg/kg/day by oral gavage), and during 6 weeks in the second study, that involved the daily administration of Compound 1 of WO 2007147879 (Cpd1, at 30 mg/kg/day by oral gavage). […]
In another study, the liver-specific anti-inflammatory and anti-fibrotic properties effects of Cpd 29 and Compound 1 of WO 2007/147879 (Cpd 1) were evaluated in the hApoE2 KI/PPARalpha KO mice that were fed a Western diet and daily treated with the selected compounds during 6 weeks.

[2] = tested on: hApoE2 KI mice; assay: hApoE2 KI mice on Western diet, 2 weeks, histological scores of liver steatosis and intralobular inflammation; settings: 30 mg/kg/day
Description: Animals were fed a Western diet (20% saturated fat and 0.2% cholesterol, Harlan Teklad TD88137) during 2 weeks in the first study, that involved the daily administration of Cpd 29 (at 30 mg/kg/day by oral gavage), and during 6 weeks in the second study, that involved the daily administration of Compound 1 of WO 2007147879 (Cpd1, at 30 mg/kg/day by oral gavage). Control animals were treated with vehicle only (Carboxymethlycellulose 1%+Tween-80 0.1%). Animals had access to food and water ad libitum.
At the end of the studies, the animals were weighed and sacrificed under anesthesia. Blood was collected from the retro-orbital sinus; plasma was obtained by centrifugation (4 000 rpm, at 4° C. for 15 min) and subsequently frozen and stored at −20° C. Tissues and livers were isolated and snap-frozen in liquid nitrogen and stored at −80° C. for subsequent analysis (gene expression and biochemistry) or fixed in 4% paraformaldehyde for histology.
Formalin-fixed liver tissue was processed, and 5-μm-thick paraffin sections were stained with Hematoxylin and Eosin. The histological analysis of stained liver sections was carried out in blind conditions to quantify liver steatosis and liver intralobular inflammation. Liver steatosis was scored from 0 to 3 as follows: 0 (very slightly affected), 1 (slightly affected), 2 (moderately affected), 3 (highly affected). Liver intralobular inflammation was also scored depending on the number of inflammatory foci counted by field of observation as follows: 0 (<1 focus/field), 1 (1 to 2 foci/field), 2 (2 to 4 foci/field) 3 (more than 4 foci/field).
Exemplary compounds of the General Formula (I) were tested in vivo in a high fat diet mice model. hApoE2 KI and hApoE2 KI/PPARalpha KO (“humanized” ApoE2 knock-in mice deficient for the mPPARalpha gene) were fed a Western diet and daily treated with the Cpd 29 at 30 mg/kg/day during 2 weeks. At the end of the protocol, liver steatosis and intra-lobular inflammation were evaluated in the control and treated mice by means of histological analysis and specific scores.

[3] = tested on: ob/ob mice; assay: ob/ob mice, plasma ALAT after 26 days of treatment; settings: 26 days daily gavage; Cpd 29 30 mg/kg/day, Rosiglitazone 10 mg/kg/day; FIG. 2C
Description: The compounds of the General Formula (I) were tested in a murine model of type II diabetes, the ob/ob mice. […] After 26 days of treatment, animals were sacrificed and plasma samples and livers were harvested. Hepatic expression of genes that are known to be implicated in the liver inflammation process was evaluated and plasmatic levels of ALAT were measured (Panels A-C). Statistical analysis was performed using unpaired T-test with three p values that defines statistical relevance (* means p<0.05; ** means p<0.01; *** means p<0.001).
Male ob/ob mice (8 weeks of age) were purchased from Charles River (L'Arbresle, France) and were kept on a 12-hour light/dark cycle at a constant temperature of 20±3° C. After a 1 week acclimation, mice were separated in groups of 8 animals selected such that the distribution of their body weight and their 6 hours fasting glycemia determined before the experiment were uniform. Animals were fed a standard chow diet (R03, SAFE) and treated during 26 days with the compounds of interest. […] Control animals were treated with vehicle only (Carboxymethlycellulose 1%+Tween-80 0.1%). Animals had access to food and water ad libitum.
At the end of the studies, the animals were weighed and sacrificed under anesthesia. […]

## 1-[4-methylthiophenyl]-3-[3,5-dimethyl-4-carboxydimethylmethyloxyphenyl]prop-2-en-1-one [Cpd 29]
[1]
  triglycerides accumulation in the liver: prevented
[2]; hApoE2 KI mice, Western diet
  development of liver inflammation induced by the diet: inhibits
  development of liver steatosis induced by the diet: inhibits
[2]; share of group with score 0 (<1 focus/field), hApoE2 KI
  Liver Inflammation (score) 0: 100%
[2]; share of group with score 0 (very slightly affected), hApoE2 KI
  Liver Steatosis (score) 0: 83%
[2]; share of group with score 1 (1 to 2 foci/field), hApoE2 KI
  Liver Inflammation (score) 1: 0%
[2]; share of group with score 1 (slightly affected), hApoE2 KI
  Liver Steatosis (score) 1: 17%
[2]; share of group with score 2 (2 to 4 foci/field), hApoE2 KI
  Liver Inflammation (score) 2: 0%
[2]; share of group with score 2 (moderately affected), hApoE2 KI
  Liver Steatosis (score) 2: 0%
[2]; share of group with score 3 (highly affected), hApoE2 KI
  Liver Steatosis (score) 3: 0%
[2]; share of group with score 3 (more than 4 foci/field), hApoE2 KI
  Liver Inflammation (score) 3: 0%
[3]
  plasmatic levels of ALAT: statistically significant decrease
